Tests used:
native rat mGluR2 = molecular target: T1, native rat mGluR2 (Rattus norvegicus, UniProt P31421); experiment: [35S]GTPγS binding assay using cortical rat brain membranes; format: biochemical; conditions: selective mGluR2 agonist such as LY379268; rat cortical membranes; 3 or 10 μM of positive allosteric modulator
T1 construct: from tissue; host or cells: rat brain cortex membranes (Sprague-Dawley rats, Charles River Laboratories)
Excerpt: The [^35S]GTPγS binding is a functional membrane-based assay used to study G-protein coupled receptor (GPCR) function. This method is using a binding assay to assess the initial step in receptor-mediated G protein activation in membranes prepared from cells expressing recombinant GPCR or using membranes from discrete area of the rat brain. In brief, the assay is measuring the activation of G proteins by catalyzing the exchange of guanosine 5′-diphosphate (GDP) by guanosine 5′-triphosphate (GTP) at the α subunit. The GTP-bounded G proteins dissociate into two subunits, Gα-GTP and Gβγ, which in turn regulate intracellular enzymes and ion channels. GTP is rapidly hydrolysed by the Gα-subunit (GTPases) and the G protein is deactivated and ready for new GTP exchange cycle (Harper (1998) Curr Protoc Pharmacol 2.6.1-10, John Wiley & Sons, Inc.). [^35S]GTPγS, a non-hydrolyzed analogue of GTP, is used for this purpose.
This method is widely used to study receptor activation of G protein in membranes prepared from rat brain tissue, including mGluR2 receptors (Schaffhauser et al 2003, Pinkerton et al, 2004). mGluR2 receptors are expressed in the rat brain cortex (Mutel et al (1998) J. Neurochem. 71:2558-64; Schaffhauser et al (1998) Mol. Pharmacol. 53:228-33) and are coupled to Gαi-protein, a preferential coupling for this method.
[^35S]GTPγS binding assay using cortical rat brain membranes preparation was used and adapted from Schaffhauser et al ((2003) Mol. Pharmacol. 4:798-810) for the detection of the positive allosteric modulator properties of the compounds of this invention on native rat mGluR2. In order to eliminate the possible interference with group III Gαi-protein coupled mGluRs (mGluR4, mGluR7, mGluR8; mGluR6 is not expressed in the cortex (Laurie et al (1997) Neuropharmacol. 36:145-52)), the potentiation of the response to a selective mGluR2 agonist, such as DCG-IV (Cartmell et al. (1998) Br. J. Pharmacol. 123(3):497-504) or LY379268 (Monn et al. (1999) J. Med. Chem 42:1027-40), by compounds described in the present invention was performed.
Cortices were dissected out from brains of 200-300 g Sprague-Dawley rats (Charles River Laboratories, L'Arbresle, France). Tissues were homogenized in 6 volumes (vol/wt) of 10% sucrose at 4° C. using a glass-teflon homogenizer. The homogenate was centrifuged at 1250 g for 10 min, and the supernatant was centrifuged at 40,000 g for 20 min (4° C.). The pellet was resuspended in 25 ml water using a Polytron disrupter (Kinematica AG, Luzern, Switzerland) and centrifuged for 10 min at 3000 g. (4° C.). The supernatant was centrifuged at 40,000 g for 20 min (4° C.). The supernatant was discarded and the pellet washed twice by resuspension in 10 volumes 5 mM HEPES-KOH, pH 7.4. The homogenate was frozen and thawed twice and centrifuged at 40,000 g for 20 min. The final pellet was resuspended in 5 mM HEPES-KOH, pH 7.4 and stored at −80° C. before its use. Protein concentration was determined by the Bradford method (Bio-Rad protein assay, Reinach, Switzerland) with bovine serum albumin as standard.
Measurement of mGluR2 positive allosteric modulators properties in rat cortical membranes was performed as follows: rat cortical membrane (1.5 μg) were incubated in 96-well microplates for 15 min at 30° C. in assay buffer (50 mM HEPES pH 7.4, 100 mM NaCl, 5 mM MgCl2, 10 μM GDP, 10 μg/ml saponin, EGTA 0.2 mM) with increasing concentrations of positive allosteric modulator (from 1 nM to 10 μM) and a minimal concentration of DCG-IV or LY379268, a selective mGluR2 agonist, that has been determined in previous experiments and that corresponds to the EC20, a concentration that gives 20% of the maximal response of the agonist, and is in accordance to published data (Pin et al. (1999) Eur. J. Pharmacol. 375:277-294). […]

T1 sequence (P31421 19-872): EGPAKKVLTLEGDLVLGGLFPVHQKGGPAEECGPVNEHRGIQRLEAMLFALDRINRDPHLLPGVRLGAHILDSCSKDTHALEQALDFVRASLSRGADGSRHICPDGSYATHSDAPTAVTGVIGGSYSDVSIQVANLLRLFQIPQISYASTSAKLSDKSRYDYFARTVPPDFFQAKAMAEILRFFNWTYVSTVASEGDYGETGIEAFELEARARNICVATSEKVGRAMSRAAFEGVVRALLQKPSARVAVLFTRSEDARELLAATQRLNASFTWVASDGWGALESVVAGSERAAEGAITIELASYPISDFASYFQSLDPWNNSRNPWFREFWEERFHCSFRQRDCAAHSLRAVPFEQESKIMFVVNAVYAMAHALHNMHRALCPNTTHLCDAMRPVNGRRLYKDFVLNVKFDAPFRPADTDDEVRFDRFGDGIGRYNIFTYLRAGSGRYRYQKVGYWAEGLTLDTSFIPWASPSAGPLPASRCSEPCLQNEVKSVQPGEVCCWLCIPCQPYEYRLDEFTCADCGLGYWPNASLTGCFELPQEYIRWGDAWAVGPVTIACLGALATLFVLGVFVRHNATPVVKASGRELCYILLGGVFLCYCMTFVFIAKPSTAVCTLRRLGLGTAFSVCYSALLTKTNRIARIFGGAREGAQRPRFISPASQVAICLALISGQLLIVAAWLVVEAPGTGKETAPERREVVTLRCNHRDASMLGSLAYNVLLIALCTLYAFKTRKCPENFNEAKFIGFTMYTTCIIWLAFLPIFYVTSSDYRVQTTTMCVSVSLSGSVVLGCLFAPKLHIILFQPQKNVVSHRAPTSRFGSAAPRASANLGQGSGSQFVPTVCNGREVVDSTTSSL

Compound | Activity: left-ward shift of agonist mGluR2 concentration-response curve (native rat mGluR2) | melting point
O=C(O)CCc1ccc(-c2ccc(=O)n(Cc3ccc(Cl)cc3)c2)cc1 [2-32] | ++ (left-ward shift of agonist mGluR2 concentration-response curve [2- to 3.5-fold]) | 185 °C
CS(=O)(=O)Nc1cccc(-c2ccc(=O)n(Cc3ccc(Cl)cc3)c2)c1 [2-55] | ++ (left-ward shift of agonist mGluR2 concentration-response curve [2- to 3.5-fold]) | 169 °C
Cc1ccc(-c2ccc(=O)n(Cc3ccc(Cl)cc3)c2)nc1 [2-61] | ++ (left-ward shift of agonist mGluR2 concentration-response curve [2- to 3.5-fold]) | 135 °C
COc1cccc(Cc2ccc(=O)n(Cc3ccc(Cl)cc3)c2)c1 [3-02, 5-(3-Methoxybenzyl)-1-(4-chlorobenzyl)pyridin-2(1H)-one] | ++ (left-ward shift of agonist mGluR2 concentration-response curve [2- to 3.5-fold]) | 
COc1ccc(-c2ccc(=O)n(Cc3ccc(Cl)cc3)c2)cc1 [4-20] | +++ (left-ward shift of agonist mGluR2 concentration-response curve [>3.5]) | 142 °C
COc1ccc(-c2ccc(=O)n(Cc3ccc(C(F)(F)F)nc3)c2)cc1.Cl [4-47, 5-(4-Methoxyphenyl)-1-((6-(trifluoromethyl)pyridin-3-yl)methyl)-pyridin-2(1H)-one hydrochloride] | +++ (left-ward shift of agonist mGluR2 concentration-response curve [>3.5]) | 168 °C
COc1ccc(-c2ccc(=O)n(Cc3ccc(F)c(F)c3)c2)cn1 [6-16] | ++ (left-ward shift of agonist mGluR2 concentration-response curve [2- to 3.5-fold]) | 120 °C
O=c1ccc(-c2ccc(OCc3nn[nH]n3)cc2)cn1Cc1ccc(Cl)cc1F [6-65, 5-(4-((2H-Tetrazol-5-yl)methoxy)phenyl)-1-(4-chloro-2-fluorobenzyl)pyridin-2(1H)-one] | +++ (left-ward shift of agonist mGluR2 concentration-response curve [>3.5]) | 197 °C
CS(=O)(=O)NCc1ccc(-c2ccc(=O)n(Cc3ccc(Cl)cc3F)c2)cc1 [6-73] | ++ (left-ward shift of agonist mGluR2 concentration-response curve [2- to 3.5-fold]) | 165 °C
Cl.O=c1ccc(C#Cc2cccnc2)cn1Cc1cccc(F)c1 [7-02, 1-(3-Fluorobenzyl)-5-(2-(pyridin-3-yl)ethynyl)pyridin-2(1H)-one hydrochloride] | + (left-ward shift of agonist mGluR2 concentration-response curve [<2]) | 179 °C
COCCc1cc(=O)n(Cc2ccc(Cl)cc2)cc1-c1ccc(OC)cc1 [9-17, 1-(4-Chlorobenzyl)-4-(2-methoxyethyl)-5-(4-methoxyphenyl)pyridin-2(1H)-one] | + (left-ward shift of agonist mGluR2 concentration-response curve [<2]) | 
COc1ccc(-c2cn(Cc3ccc(Cl)cc3F)c(=O)cc2OC)cc1 [9-18, 1-(4-Chloro-2-fluorobenzyl)-4-methoxy-5-(4-methoxyphenyl)pyridin-2(1H)-one] | + (left-ward shift of agonist mGluR2 concentration-response curve [<2]) | 
CC(C)CCn1ccc(-c2cccs2)c(C#N)c1=O [10-28, 1,2-Dihydro-1-isopentyl-2-oxo-4-(thiophen-2-yl)pyridine-3-carbonitrile] | +++ (left-ward shift of agonist mGluR2 concentration-response curve [>3.5]) | 123 °C
COc1ccc(-c2ccn(Cc3cccc(F)c3)c(=O)c2)cc1 [11-03, 1-(3-Fluorobenzyl)-4-(4-methoxyphenyl)pyridin-2(1H)-one] | + (left-ward shift of agonist mGluR2 concentration-response curve [<2]) | 114 °C
COc1ccc(-c2cn(Cc3ccc(Cl)cc3)c(=O)cn2)cc1 [12-06, 1-(4-Chlorobenzyl)-5-(4-methoxyphenyl)pyrazin-2(1H)-one] | + (left-ward shift of agonist mGluR2 concentration-response curve [<2]) | 133 °C
O=c1c2ccccc2ccn1Cc1ccc(F)cc1 [13-01, 2-(4-Fluorobenzyl)isoquinolin-1(2H)-one] | ++ (left-ward shift of agonist mGluR2 concentration-response curve [2- to 3.5-fold]) | 107 °C
CCCn1ccc2c(NCCc3ccc(O)cc3)cccc2c1=O [13-05, 5-(4-Hydroxyphenethylamino)-2-propylisoquinolin-1(2H)-one] | +++ (left-ward shift of agonist mGluR2 concentration-response curve [>3.5]) | 170 to 171 °C
O=c1ccc2ccccc2n1Cc1ccc(Cl)cc1 [15-04, 1-(4-Chlorobenzyl)quinolin-2(1H)-one] | + (left-ward shift of agonist mGluR2 concentration-response curve [<2]) | 139 °C
O=c1ccc(COc2ccccc2)cn1Cc1ccc(C(F)(F)F)nc1 [16-07] | ++ (left-ward shift of agonist mGluR2 concentration-response curve [2- to 3.5-fold]) | 119 to 121 °C

— patent US8399493B2, “Pyridinone derivatives and their use as positive allosteric modulators of mGluR2-receptors” (Janssen Pharmaceuticals, Inc., priority 2004, dated 2013)
